From patent publication US9556150B2, “Inhibitors of bruton's tyrosine kinase” (Hoffmann-La Roche Inc., priority 2013, dated 2017)
Structures can show the parent of a compound that is named as a salt.

biological target: Bruton's Tyrosine Kinase (BTK), inactivated state (Homo sapiens (Human), UniProt Q06187); assay: Bruton's Tyrosine Kinase (BTK) Inhibition TR-FRET (Time Resolved FRET) competition assay; type: binding; details: TR-FRET competition with Kinase Tracer 178, BTK-Eu complex, 18-24 h at 14° C.
Sequence (Q06187 whole entry): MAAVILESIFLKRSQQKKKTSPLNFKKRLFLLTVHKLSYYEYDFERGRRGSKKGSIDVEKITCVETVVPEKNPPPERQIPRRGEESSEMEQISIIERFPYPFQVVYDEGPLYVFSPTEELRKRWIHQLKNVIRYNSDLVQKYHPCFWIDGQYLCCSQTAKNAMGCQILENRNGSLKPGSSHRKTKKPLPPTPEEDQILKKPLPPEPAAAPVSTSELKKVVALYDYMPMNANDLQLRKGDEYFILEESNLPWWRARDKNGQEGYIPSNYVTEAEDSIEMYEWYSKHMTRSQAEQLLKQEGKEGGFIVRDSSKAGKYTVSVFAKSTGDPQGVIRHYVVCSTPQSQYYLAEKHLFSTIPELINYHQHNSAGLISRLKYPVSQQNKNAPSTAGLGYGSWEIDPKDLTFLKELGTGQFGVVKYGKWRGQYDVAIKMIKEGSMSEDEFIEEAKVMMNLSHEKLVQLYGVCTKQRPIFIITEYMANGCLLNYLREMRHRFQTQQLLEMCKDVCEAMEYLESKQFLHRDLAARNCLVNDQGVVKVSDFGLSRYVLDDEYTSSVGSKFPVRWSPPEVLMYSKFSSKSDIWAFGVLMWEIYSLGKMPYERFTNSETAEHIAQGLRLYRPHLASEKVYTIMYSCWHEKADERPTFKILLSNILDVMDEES
Protocol: Bruton's Tyrosine Kinase (BTK) Inhibition TR-FRET (Time Resolved FRET) Assay
This BTK competition assay measures compound potency (IC50) for the inactivated state of Bruton's Tyrosine Kinase using FRET (Förster/Fluorescence Resonance Energy Transfer) technology. The BTK-Eu complex was incubated on ice one hour prior to use at a starting concentration of 50 nM BTK-Bioease™: 10 nM Eu-streptavidin (Perkin-Elmer Catalog#AD0062). The assay buffer consisted of 20 mM HEPES (pH 7.15), 0.1 mM DTT, 10 mM MgCl2, 0.5 mg/ml BSA with 3% Kinase Stabilizer (Fremont Biosolutions, Catalog #STB-K02). After 1 h, the reaction mixture from above was diluted 10 fold in assay buffer to make 5 nM BTK: 1 nM Eu-Streptavidin complex (donor fluorophore). 18 μl of a mixture of 0.11 nM BTK-Eu and 0.11 nM Kinase Tracer 178 (Invitrogen, Catalog #PV5593,) with BTK-Eu alone as no negative control, was then dispensed into 384-well flat bottom plates (Greiner, 784076). Compounds to be tested in assay were prepared as 10× concentrations and serial dilution in half-log increments was performed in DMSO so as to generate 10 point curves. To initiate the FRET reaction, compounds prepared as 10× stock in DMSO was added to the plates and the plates were incubated 18-24 h at 14° C.
After the incubation the plates were read on a BMG Pherastar Fluorescent plate reader (or equivalent) and used to measure the emission energy from the europium donor fluorophore (620 nm emission) and the FRET (665 nm emission). The negative control well values were averaged to obtain the mean minimum. The positive “no inhibitor” control wells were averaged to obtain the mean maximum. Percent of maximal FRET was calculated using following equation: % max FRET=100×[(FSR cmpd−FSR mean min)/(FSR mean max−FSR mean min)]
where FSR=FRET Signal ratio. % Max FRET curves were plotted in Activity Base (Excel) and the IC50(%), hill slope, z′ and % CV were determined. The mean IC50 and standard deviation will be derived from duplicate curves (singlet inhibition curves from two independent dilutions) using Microsoft Excel.
Representative compound data for this assay are listed below in Table II.

First: CNCCNC(=O)c1ccc2[nH]c(C(=O)c3cnn(-c4ccc(Oc5ccccc5C(=O)N(C)C)cc4Cl)c3N)cc2c1 [Example I-56, 2-{5-Amino-1-[2-chloro-4-(2-dimethylcarbamoyl-phenoxy)-phenyl]-1H-pyrazole-4-carbonyl}-1H-indole-5-carboxylic acid (2-methylamino-ethyl)-amideacetic acid salt]
Second: CN(C)C(=O)c1ccccc1Oc1ccc(-n2ncc(C(=O)c3cc4cc(C(=O)N5CCC(N(C)C(=O)OC(C)(C)C)C5)ccc4[nH]3)c2N)c(Cl)c1 (centres unmarked) [Example I-52, [1-(2-{5-Amino-1-[2-chloro-4-(2-dimethylcarbamoyl-phenoxy)-phenyl]-1Hpyrazole-4-carbonyl}-1H-indole-5-carbonyl)-pyrrolidin-3-yl]-methyl-carbamic acid tert-butyl ester]
The IC50 of the first is 5.5-fold lower: 0.0031 µM for the first, 0.017 µM for the second.

First: COc1nc(Oc2cccc(F)c2F)ccc1-n1ncc(C(=O)c2cc3cc(C(=O)N4CCOCC4)ccc3[nH]2)c1N [Example I-25, {5-Amino-1-[6-(2,3-difluoro-phenoxy)-2-methoxy-pyridin-3-yl]-1H-pyrazol-4-yl}-[5-(morpholine-4-carbonyl)-1H-indol-2-yl]-methanone]
Second: COc1ccc(-n2ncc(C(=O)c3cc4cc(C(=O)N5CCOCC5)ccc4[nH]3)c2N)c(C)c1 [Example I-20, [5-Amino-1-(4-methoxy-2-methyl-phenyl)-1H-pyrazol-4-yl]-[5-(morpholine-4-carbonyl)-1H-indol-2-yl]-methanone]
The IC50 of the first is 2-fold lower: 0.074 µM for the first, 0.15 µM for the second.

`Cc1cc(Oc2cccc(C#N)c2)ccc1-n1ncc(C(=O)c2cc3cc(C(=O)NCCN)ccc3[nH]2)c1N` [Example I-36, 2-{5-Amino-1-[4-(3-cyano-phenoxy)-2-methyl-phenyl]-1H-pyrazole-4-carbonyl}-H-indole-5-carboxylic acid (2-amino-ethyl)-amide] showed an IC50 of 0.005 µM.
